Test results from patent US9474790B2, “Stable, protracted GLP-1/glucagon receptor co-agonists for medical use” (Novo Nordisk A/S, priority 2013, dated 2016).
Numbered stars: 1 amine (or outer) side, 2 acyl side, 3 side chain; on linkers, the order of the positions; unused ones are H or OH. Square brackets hold non-standard residues; d marks the D form. Side chains are listed from the residue outwards. Peptide text beside a SMILES is read from it. * marks the point of attachment. C18 diacid = O=C(O)CCCCCCCCCCCCCCCCC(=O)*; γGlu = O=C(O)[C@H](CCC(=O)[*:2])N[*:1]; AEEA = NCCOCCOCC(=O)O; Aib = CC(C)(N)C(=O)O

Assay: Thioflavin T (ThT) fibrillation assay for physical stability
Type: physicochemical
Details: 250 μM in 10 mM HEPES buffer, pH 7.5, 37° C., shaking 960 rpm
How it was run: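 Fibrillation was followed by ThT (1 μM) fluorescence every 20 min, 444/485 nm, for 250 μM peptide in 10 mM HEPES pH 7.5 shaken at 960 rpm, 37° C. Lag time (t0−2τ) and apparent rate constant (1/τ) come from a sigmoidal fit. Recovery is % of initial concentration remaining soluble after centrifugation and filtration (RP-HPLC).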

Row | SMILES | THT assay Lag time (Ex. 76)
1 | CC(C)C[C@H](NC(=O)[C@H](CC(=O)O)NC(=O)[C@H](CC(C)C)NC(=O)[C@H](Cc1ccc(O)cc1)NC(=O)[C@H](CCCCN)NC(=O)[C@H](CO)NC(=O)[C@H](CC(C)C)NC(=O)[C@H](CC(=O)O)NC(=O)[C@H](CO)NC(=O)[C@@H](NC(=O)[C@H](Cc1ccccc1)NC(=O)[C@@H](NC(=O)CNC(=O)[C@H](CCC(N)=O)NC(=O)C(C)(C)NC(=O)[C@@H](N)Cc1c[nH]cn1)[C@@H](C)O)[C@@H](C)O)C(=O)N[C@@H](CCCCN)C(=O)N[C@@H](CCCNC(=N)N)C(=O)N[C@@H](C)C(=O)N[C@@H](CCCNC(=N)N)C(=O)N[C@@H](CCC(=O)O)C(=O)N[C@@H](Cc1ccccc1)C(=O)N[C@H](C(=O)N[C@@H](CCC(N)=O)C(=O)N[C@@H](Cc1c[nH]c2ccccc12)C(=O)N[C@@H](CC(C)C)C(=O)N[C@@H](CC(C)C)C(=O)N[C@@H](CCCCNC(=O)CC[C@H](NC(=O)CC[C@H](NC(=O)COCCOCCNC(=O)COCCOCCNC(=O)CC[C@H](NC(=O)CCCCCCCCCCCCCCCCC(=O)O)C(=O)O)C(=O)O)C(=O)O)C(=O)N[C@H](C(N)=O)[C@@H](C)O)C(C)C [Example 26, N^ε28-[(4S)-4-carboxy-4-[[(4S)-4-carboxy-4-[[2-[2-[2-[[2-[2-[2-[[(4S)-4-carboxy-4-(17-carboxyheptadecanoylamino)butanoyl]amino]ethoxy]ethoxy]-acetyl]amino]ethoxy]ethoxy]acetyl]amino]butanoyl]amino]butanoyl]-[Aib2,Leu10,Leu16,Lys17,Arg20,Glu21, Leu27,Lys28]-Glucagon amide] (H-H[Aib]QGTFTSDLSKYLDLKRAREFVQWLLK([γGlu-γGlu-AEEA-AEEA-γGlu-C18 diacid])T-NH2) | 45 h
2 | CC(C)C[C@H](NC(=O)[C@H](Cc1ccc(O)cc1)NC(=O)[C@H](CCCCN)NC(=O)[C@H](CO)NC(=O)[C@H](CC(C)C)NC(=O)[C@H](CC(=O)O)NC(=O)[C@H](CO)NC(=O)[C@@H](NC(=O)[C@H](Cc1ccccc1)NC(=O)[C@@H](NC(=O)CNC(=O)[C@H](Cc1c[nH]cn1)NC(=O)C(C)(C)NC(=O)[C@@H](N)Cc1c[nH]cn1)[C@@H](C)O)[C@@H](C)O)C(=O)N[C@@H](CCC(=O)O)C(=O)N[C@@H](CO)C(=O)N[C@@H](CCCCN)C(=O)N[C@@H](CCCNC(=N)N)C(=O)N[C@@H](C)C(=O)N[C@@H](CCCNC(=N)N)C(=O)N[C@@H](CCC(=O)O)C(=O)N[C@@H](Cc1ccccc1)C(=O)N[C@H](C(=O)N[C@@H](CCC(N)=O)C(=O)N[C@@H](Cc1c[nH]c2ccccc12)C(=O)N[C@@H](CC(C)C)C(=O)N[C@@H](CC(C)C)C(=O)N[C@@H](CCCCNC(=O)CC[C@H](NC(=O)CC[C@H](NC(=O)COCCOCCNC(=O)COCCOCCNC(=O)CC[C@H](NC(=O)CCCCCCCCCCCCCCCCC(=O)O)C(=O)O)C(=O)O)C(=O)O)C(=O)N[C@H](C(N)=O)[C@@H](C)O)C(C)C [Example 27, N^ε28-[(4S)-4-carboxy-4-[[(4S)-4-carboxy-4-[[2-[2-[2-[[2-[2-[2-[[(4S)-4-carboxy-4-(17-carboxyheptadecanoylamino)butanoyl]amino]ethoxy]ethoxy]acetyl]amino]ethoxy]ethoxy]acetyl]amino]butanoyl]amino]butanoyl]-[Aib2,His3,Leu10,Glu15,Lys17,Arg20,Glu21,Leu27, Lys28]-Glucagon amide] (H-H[Aib]HGTFTSDLSKYLESKRAREFVQWLLK([γGlu-γGlu-AEEA-AEEA-γGlu-C18 diacid])T-NH2; N-terminus assumed) | 42 h
3 | CC(C)C[C@H](NC(=O)[C@H](Cc1ccc(O)cc1)NC(=O)[C@H](CCCCN)NC(=O)[C@H](CO)NC(=O)[C@H](CC(C)C)NC(=O)[C@H](CC(=O)O)NC(=O)[C@H](CO)NC(=O)[C@@H](NC(=O)[C@H](Cc1ccccc1)NC(=O)[C@@H](NC(=O)CNC(=O)[C@H](Cc1c[nH]cn1)NC(=O)C(C)(C)NC(=O)[C@@H](N)Cc1c[nH]cn1)[C@@H](C)O)[C@@H](C)O)C(=O)N[C@@H](CCC(=O)O)C(=O)N[C@@H](CO)C(=O)N[C@@H](CCCNC(=N)N)C(=O)N[C@@H](CCCNC(=N)N)C(=O)N[C@@H](C)C(=O)N[C@@H](CCCNC(=N)N)C(=O)N[C@@H](CCC(=O)O)C(=O)N[C@@H](Cc1ccccc1)C(=O)N[C@H](C(=O)N[C@@H](CCC(N)=O)C(=O)N[C@@H](Cc1c[nH]c2ccccc12)C(=O)N[C@@H](CC(C)C)C(=O)N[C@@H](CC(C)C)C(=O)N[C@@H](CCCCNC(=O)CC[C@H](NC(=O)COCCOCCNC(=O)COCCOCCNC(=O)CC[C@H](NC(=O)CC[C@H](NC(=O)CCCCCCCCCCCCCCCCC(=O)O)C(=O)O)C(=O)O)C(=O)O)C(=O)N[C@H](C(N)=O)[C@@H](C)O)C(C)C [Example 30, N^ε28-[(4S)-4-carboxy-4-[[2-[2-[2-[[2-[2-[2-[[(4S)-4-carboxy-4-[[(4S)-4-carboxy-4-(17-carboxyheptadecanoylamino)butanoyl]amino]butanoyl]amino]ethoxy]ethoxy]acetyl]amino]ethoxy]ethoxy]acetyl]amino]butanoyl]-[Aib2,His3,Leu10,Glu15,Arg20,Glu21,Leu27,Lys28]-Glucagon amide] (H-H[Aib]HGTFTSDLSKYLESRRAREFVQWLLK([γGlu-AEEA-AEEA-γGlu-γGlu-C18 diacid])T-NH2; N-terminus assumed) | 45 h
4 | CC(C)C[C@H](NC(=O)[C@H](Cc1c[nH]c2ccccc12)NC(=O)[C@H](C)NC(=O)[C@@H](NC(=O)[C@H](Cc1ccccc1)NC(=O)[C@H](CCC(=O)O)NC(=O)[C@H](CCCNC(=N)N)NC(=O)[C@H](C)NC(=O)[C@H](CCCNC(=N)N)NC(=O)[C@H](CCCNC(=N)N)NC(=O)[C@H](CO)NC(=O)[C@H](CCC(=O)O)NC(=O)[C@H](CC(C)C)NC(=O)[C@H](Cc1ccc(O)cc1)NC(=O)[C@H](CCCCN)NC(=O)[C@H](CO)NC(=O)[C@H](CC(C)C)NC(=O)[C@H](CC(=O)O)NC(=O)[C@H](CO)NC(=O)[C@@H](NC(=O)[C@H](Cc1ccccc1)NC(=O)[C@@H](NC(=O)CNC(=O)[C@H](Cc1c[nH]cn1)NC(=O)C(C)(C)NC(=O)[C@@H](N)Cc1c[nH]cn1)[C@@H](C)O)[C@@H](C)O)C(C)C)C(=O)N[C@@H](CC(C)C)C(=O)N[C@@H](CCCCNC(=O)CC[C@H](NC(=O)COCCOCCNC(=O)COCCOCCNC(=O)CC[C@H](NC(=O)CC[C@H](NC(=O)CCCCCCCCCCCCCCCCC(=O)O)C(=O)O)C(=O)O)C(=O)O)C(=O)N[C@H](C(N)=O)[C@@H](C)O [Example 31, N^ε28-[(4S)-4-carboxy-4-[[2-[2-[2-[[2-[2-[2-[[(4S)-4-carboxy-4-[[(4S)-4-carboxy-4-(17-carboxyheptadecanoylamino)butanoyl]amino]butanoyl]amino]ethoxy]ethoxy]acetyl]amino]ethoxy]ethoxy]acetyl]amino]butanoyl]-[Aib2,His3,Leu10,Glu15,Arg20,Glu21,Ala24,Leu27, Lys28]-Glucagon amide] (H-H[Aib]HGTFTSDLSKYLESRRAREFVAWLLK([γGlu-AEEA-AEEA-γGlu-γGlu-C18 diacid])T-NH2; N-terminus assumed) | 45 h
5 | CC(C)C[C@H](NC(=O)[C@H](Cc1ccc(O)cc1)NC(=O)[C@H](CCCCN)NC(=O)[C@H](CO)NC(=O)[C@H](CC(C)C)NC(=O)[C@H](CC(=O)O)NC(=O)[C@H](CO)NC(=O)[C@@H](NC(=O)[C@H](Cc1ccccc1)NC(=O)[C@@H](NC(=O)CNC(=O)[C@H](Cc1c[nH]cn1)NC(=O)C(C)(C)NC(=O)[C@@H](N)Cc1c[nH]cn1)[C@@H](C)O)[C@@H](C)O)C(=O)N[C@@H](CCC(=O)O)C(=O)N[C@@H](CO)C(=O)N[C@@H](CCCNC(=N)N)C(=O)N[C@@H](CCCNC(=N)N)C(=O)N[C@@H](C)C(=O)N[C@@H](CCCNC(=N)N)C(=O)N[C@@H](CCC(=O)O)C(=O)N[C@@H](Cc1ccccc1)C(=O)N[C@H](C(=O)N[C@@H](CCC(N)=O)C(=O)N[C@@H](Cc1c[nH]c2ccccc12)C(=O)N[C@@H](CC(C)C)C(=O)N[C@@H](CC(C)C)C(=O)N[C@@H](CCCCNC(=O)CC[C@H](NC(=O)CC[C@H](NC(=O)COCCOCCNC(=O)COCCOCCNC(=O)CC[C@H](NC(=O)CCCCCCCCCCCCCCCCC(=O)O)C(=O)O)C(=O)O)C(=O)O)C(=O)N[C@H](C(N)=O)[C@@H](C)O)C(C)C [Example 33, N^ε28-[(4S)-4-carboxy-4-[[(4S)-4-carboxy-4-[[2-[2-[2-[[2-[2-[2-[[(4S)-4-carboxy-4-(17-carboxyheptadecanoylamino)butanoyl]amino]ethoxy]ethoxy]acetyl]amino]ethoxy]ethoxy]acetyl]amino]butanoyl]amino]butanoyl]-[Aib2,His3,Leu10,Glu15,Arg20,Glu21,Leu27,Lys28]-Glucagon amide] (H-H[Aib]HGTFTSDLSKYLESRRAREFVQWLLK([γGlu-γGlu-AEEA-AEEA-γGlu-C18 diacid])T-NH2; N-terminus assumed) | 45 h
6 | CC(C)C[C@H](NC(=O)[C@H](Cc1ccc(O)cc1)NC(=O)[C@H](CCCCN)NC(=O)[C@H](CO)NC(=O)[C@H](CC(C)C)NC(=O)[C@H](CC(=O)O)NC(=O)[C@H](CO)NC(=O)[C@@H](NC(=O)[C@H](Cc1ccccc1)NC(=O)[C@@H](NC(=O)CNC(=O)[C@H](Cc1c[nH]cn1)NC(=O)C(C)(C)NC(=O)[C@@H](N)Cc1c[nH]cn1)[C@@H](C)O)[C@@H](C)O)C(=O)N[C@@H](CCC(=O)O)C(=O)N[C@@H](CO)C(=O)N[C@@H](CCCCN)C(=O)N[C@@H](CCCNC(=N)N)C(=O)N[C@@H](C)C(=O)N[C@@H](CCCNC(=N)N)C(=O)N[C@@H](CCC(=O)O)C(=O)N[C@@H](Cc1ccccc1)C(=O)N[C@H](C(=O)N[C@@H](CCC(N)=O)C(=O)N[C@@H](Cc1c[nH]c2ccccc12)C(=O)N[C@@H](CC(C)C)C(=O)N[C@@H](CC(C)C)C(=O)N[C@@H](CCCCNC(=O)CC[C@H](NC(=O)CC[C@H](NC(=O)CC[C@H](NC(=O)CCCCCCCCCCCCCCCCC(=O)O)C(=O)O)C(=O)O)C(=O)O)C(=O)N[C@H](C(N)=O)[C@@H](C)O)C(C)C [Example 34, N^ε28-[(4S)-4-carboxy-4-[[(4S)-4-carboxy-4-[[(4S)-4-carboxy-4-(17-carboxyheptadecanoylamino)butanoyl]amino]butanoyl]amino]butanoyl]-[Aib2,His3,Leu10,Glu15,Lys17,Arg20,Glu21,Leu27,Lys28]-Glucagon amide] (H-H[Aib]HGTFTSDLSKYLESKRAREFVQWLLK([γGlu-γGlu-γGlu-C18 diacid])T-NH2; N-terminus assumed) | 45 h
